From patent US20260373266A1, “PROTEIN DEGRADERS AND USES THEREOF” (KYMERA THERAPEUTICS, INC., priority 2022, published 2026)

The compounds below were run against T1, DCAF1 WD40 domain (residues 1077-1390) (Homo sapiens, UniProt Q9Y4B6) (assay: DCAF1 binding assay by SPR (Biacore 8K+), DCAF1-3 KD). Conditions: 25 °C, read-out: DCAF1-3 SPR (KD).
T1 construct: DCAF1 WD40 domain (residues 1077-1390)
T1 sequence (Q9Y4B6 1077-1390): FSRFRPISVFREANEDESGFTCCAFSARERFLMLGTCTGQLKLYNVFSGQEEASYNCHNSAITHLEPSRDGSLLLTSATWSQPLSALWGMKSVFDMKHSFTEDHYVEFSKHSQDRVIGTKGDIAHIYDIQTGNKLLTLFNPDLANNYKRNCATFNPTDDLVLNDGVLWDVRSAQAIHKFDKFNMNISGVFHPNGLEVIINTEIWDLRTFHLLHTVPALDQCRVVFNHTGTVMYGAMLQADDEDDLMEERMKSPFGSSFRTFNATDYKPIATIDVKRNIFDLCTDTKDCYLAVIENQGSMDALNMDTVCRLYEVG

Structure (SMILES)	Kd [µM]
C=CC(=O)N(CCCCN1CCN(c2ccnc(N[C@@H]3CCCN(c4cccc(F)c4)C3)c2)CC1)CCOCCOCCNC(=O)C[C@@H]1N=C(c2ccc(Cl)cc2)c2c(sc(C)c2C)-n2c(C)nnc21 [I-904]	10 to 100
C=CC(=O)NCCCCN1CCN(c2ccnc(N(CCCOCCOCCOCCOCCNC(=O)C[C@@H]3N=C(c4ccc(Cl)cc4)c4c(sc(C)c4C)-n4c(C)nnc43)[C@@H]3CCCN(c4cccc(F)c4)C3)c2)CC1 [I-906]	100 to 200
Cc1sc2c(c1C)C(c1ccc(Cl)cc1)=N[C@@H](CC(=O)NCCOCCOCCOCCCc1ccc(C(=O)c3[nH]cc(C(=O)N[C@@H](CC(N)=O)c4cccc(Cl)c4)c3-c3c(F)ccc(F)c3C)cc1)c1nnc(C)n1-2 [I-908]	< 10
Cc1ccc(F)c(C)c1-c1c(C(=O)N[C@@H](CC(N)=O)c2cccc(Cl)c2)c[nH]c1C(=O)COCCOCCOCCOCCOCCNC(=O)C[C@@H]1N=C(c2ccc(Cl)cc2)c2c(sc(C)c2C)-n2c(C)nnc21 [I-909]	< 10
CNC(=O)C[C@H](NC(=O)c1c[nH]c(C(=O)COCCOCCOCCOCCOCCNC(=O)C[C@@H]2N=C(c3ccc(Cl)cc3)c3c(sc(C)c3C)-n3c(C)nnc32)c1-c1c(F)ccc(F)c1C)c1cccc(Cl)c1 [I-910]	< 10
Cc1sc2c(c1C)C(c1ccc(Cl)cc1)=N[C@@H](CC(=O)NCCOCCOCCOCCOCCOCC(=O)c1[nH]cc(C(=O)N[C@@H](CC(=O)N(C)C)c3cccc(Cl)c3)c1-c1c(F)ccc(F)c1C)c1nnc(C)n1-2 [I-911]	< 10
Cc1sc2c(c1C)C(c1ccc(Cl)cc1)=N[C@@H](CC(=O)NCCOCCOCCOCCOCCOCC(=O)c1c(-c3c(F)ccc(F)c3C)c(C(=O)N[C@@H](CC(N)=O)c3cccc(Cl)c3)cn1C)c1nnc(C)n1-2 [I-912]	< 10
Cc1sc2c(c1C)C(c1ccc(Cl)cc1)=N[C@@H](CC(=O)NCCOCCOCCOCCOCCCc1ccc(C(=O)c3[nH]cc(C(=O)N[C@@H](CC(=O)N4CCNCC4)c4cccc(Cl)c4)c3-c3c(F)ccc(F)c3C)cc1)c1nnc(C)n1-2 [I-913]	< 10
Cc1sc2c(c1C)C(c1ccc(Cl)cc1)=N[C@@H](CC(=O)NCCOCCOCCOCCOCCCc1ccc(C(=O)c3[nH]cc(C(=O)N[C@@H](CC(=O)N4CCN(C(=O)OCc5ccccc5)CC4)c4cccc(Cl)c4)c3-c3c(F)ccc(F)c3C)cc1)c1cnc(C)n1-2 [I-914]	< 10
Cc1sc2c(c1C)C(c1ccc(Cl)cc1)=N[C@@H](CC(=O)NCCOCCOCCOCCOCCCc1ccc(C(=O)c3c(-c4c(F)ccc(F)c4C)c(C(=O)N[C@@H](CS(C)(=O)=O)c4cccc(Cl)c4)cn3C)cc1)c1nnc(C)n1-2 [I-915]	< 10
O=[N+]([O-])c1ccc(N2CCC[C@@H](n3ccc4c(N5CCCCC5)ccnc43)C2)cc1F [I-917]	< 10
Cc1cc(CCCOCCOCCOCCOCCOCCN)cc(F)c1-c1c(C(=O)N[C@@H](CC(N)=O)c2cccc(Cl)c2)c[nH]c1C#N [I-918]	< 10
Oc1ccc(C2CCCCC2)cc1N[C@@H]1CCCN(c2cccc(F)c2)C1 [I-921]	10 to 100
COCCN(C)CC1CCN(c2ccnc(N3CC[C@@H]4[C@H]3CCCN4c3cccc(F)c3)c2)CC1 [I-922]	10 to 100
Cc1c(F)ccc(F)c1-c1cn(C)cc1C(=O)N[C@@H](CC(N)=O)c1cccc(Cl)c1 [I-924]	< 10
OC1(c2ccccc2)CCC[C@@H](Nc2cc(N3CCCCC3)ccn2)C1 (stereo partly shown) [I-925]	100 to 200
O[C@@]1(c2ccccc2)CCC[C@@H](Nc2cc(N3CCCCC3)ccn2)C1 [I-929]	10 to 100
Nc1ccc(N[C@@H]2CCCN(c3cccc(F)c3)C2)cc1C1CCCCC1 [I-930]	10 to 100
COCCOCC[C@H]1CN(c2cc(N3CCCCC3)ccn2)[C@@H]2CCCN(c3cccc(F)c3)[C@H]12 [I-931]	< 10
COCCOCC[C@@H]1CN(c2cc(N3CCCCC3)ccn2)[C@H]2CCCN(c3cccc(F)c3)[C@@H]12 [I-934]	< 10
OC[C@H]1C[C@@H](Nc2cc(N3CCCCC3)ccn2)CN(c2cccc(F)c2)C1 [I-936]	10 to 100
NC(=O)Cc1cccc(N2CCC[C@H]3[C@@H]2CCN3c2cc(N3CCCCC3)ccn2)c1 [I-942]	< 10
Cc1c(F)ccc(F)c1-c1c(C(=O)N[C@@H](CC(N)=O)c2cccc(Cl)c2)csc1C(=O)c1ccccc1 [I-944]	< 10
O=c1cc(N2CCC[C@@H](Nc3cc(N4CCCCC4)ccn3)C2)cc[nH]1 [I-945]	10 to 100

Structure (SMILES)	Kd [µM]
NC(=O)C[C@H](NC(=O)c1c[nH]c(C(=O)c2ccccc2)c1-c1c(F)cc(Cl)cc1F)c1cccc(Cl)c1 [I-946]	< 10
NCCNCc1cc(N[C@@H]2CCCN(c3cccc(F)c3)C2)cc(N2CCCCC2)c1 [I-947]	100 to 200
CC(=O)N1CCN(c2ccnc(N3CC[C@@H]4[C@H]3CCCN4c3cccc(F)c3)c2)CC1 [I-948]	10 to 100
NC(=O)C[C@H](NC(=O)c1c[nH]c(C(=O)c2ccccc2)c1-c1c(F)c(F)cc(F)c1F)c1cccc(Cl)c1 [I-949]	< 10
COCCOCCOCC[C@@H]1CN(c2cc(N3CCCCC3)ccn2)[C@H]2CCCN(c3cccc(F)c3)[C@@H]12 [I-950]	10 to 100
COCCOCCOCC[C@H]1CN(c2cc(N3CCCCC3)ccn2)[C@@H]2CCCN(c3cccc(F)c3)[C@H]12 [I-951]	< 10
NC(=O)NCc1cccc(N2CCC[C@H]3[C@@H]2CCN3c2cc(N3CCCCC3)ccn2)c1 [I-953]	< 10
NC(=O)OCc1cccc(N2CCC[C@H]3[C@@H]2CCN3c2cc(N3CCCCC3)ccn2)c1 [I-954]	< 10
NC(=O)OCc1cccc(N2CCC[C@@H]3[C@H]2CCN3c2cc(N3CCCCC3)ccn2)c1 [I-955]	10 to 100
NC(=O)N1Cc2ccc(N3CCC[C@H]4[C@@H]3CCN4c3cc(N4CCCCC4)ccn3)cc2C1 [I-956]	< 10
NC(=O)N1Cc2ccc(N3CCC[C@@H]4[C@H]3CCN4c3cc(N4CCCCC4)ccn3)cc2C1 [I-957]	10 to 100
O=C1NCCN1Cc1cccc(N2CCC[C@@H]3[C@H]2CCN3c2cc(N3CCCCC3)ccn2)c1 [I-959]	10 to 100
O=C1NCCN1Cc1cccc(N2CCC[C@H]3[C@@H]2CCN3c2cc(N3CCCCC3)ccn2)c1 [I-960]	< 10
NS(=O)(=O)CCc1cccc(N2CCC[C@H]3[C@@H]2CCN3c2cc(N3CCCCC3)ccn2)c1 [I-964]	< 10
Cc1c(F)ccc(F)c1-c1[nH]ncc1C(=O)N[C@@H](c1cccc(Cl)c1)[C@H]1CCOC1 [I-965]	100 to 200
Cc1c(F)ccc(F)c1-c1[nH]ncc1C(=O)N[C@H](c1cccc(Cl)c1)[C@@H]1CCOC1 [I-967]	10 to 100
Cc1c(F)ccc(F)c1-c1[nH]ncc1C(=O)N[C@H](c1cccc(Cl)c1)[C@H]1CCOC1 [I-968]	10 to 100
Cc1cc(Cl)cc(C)c1-c1c(C(=O)N[C@@H](CC(N)=O)c2cccc(Cl)c2)c[nH]c1C(=O)c1ccccc1 [I-969]	< 10
Nc1cc(N[C@@H]2CCCN(c3cccc(F)c3)C2)cc(C2CCCCC2)c1 [I-970]	10 to 100
OCCOCCOCCOCCOCCC1CCCCN1c1ccnc(N2CC[C@@H]3[C@H]2CCCN3c2cccc(F)c2)c1 (stereo partly shown) [I-971]	< 10
Cc1c(F)ccc(F)c1-c1c(C(=O)N[C@@H](CC(N)=O)c2cccc(Cl)c2)csc1C#N [I-972]	< 10
COCCC(=O)c1c(-c2c(F)ccc(F)c2C)c(C(=O)N[C@@H](CC(N)=O)c2cccc(Cl)c2)cn1C [I-973]	< 10
CCn1cc(C(=O)N[C@@H](CC(N)=O)c2cccc(Cl)c2)c(-c2c(F)ccc(F)c2C)c1C#N [I-974]	< 10
Cc1c(F)ccc(F)c1-c1c(C(=O)N[C@@H](CC(N)=O)c2cccc(Cl)c2)cn(C(C)C)c1C#N [I-976]	< 10

Structure (SMILES)	Kd [µM]
OCCCCCCCCC1CCN(c2ccnc(N3CC[C@@H]4[C@H]3CCCN4c3cccc(F)c3)c2)CC1 [I-977]	10 to 100
Cc1ccc(CCCOCCOCCOCCOCCOCCN)c(F)c1-c1c(C(=O)N[C@@H](CC(N)=O)c2cccc(Cl)c2)c[nH]c1C#N [I-978]	< 10
NCCNc1ccc(C2CCCCC2)cc1N[C@@H]1CCCN(c2cccc(F)c2)C1 [I-979]	10 to 100
OCc1c(CN2CCCCC2)cccc1C1CCCN(c2cccc(F)c2)C1 (stereo not shown) [I-981]	10 to 100
NCC(=O)NCc1ccc(N2CCCCC2)cc1N[C@@H]1CCCN(c2cccc(F)c2)C1 [I-982]	10 to 100
O[C@H]1CC[C@@H](Nc2cc(N3CCCCC3)ccn2)C[C@@H]1c1ccccc1 [I-984]	10 to 100
O[C@@H]1CC[C@@H](Nc2cc(N3CCCCC3)ccn2)C[C@H]1c1ccccc1 [I-985]	10 to 100
OC[C@@H]1CCN(c2cccc(F)c2)C[C@@H]1Nc1cc(N2CCCCC2)ccn1 [I-988]	100 to 200
OC[C@@H]1CCN(c2cccc(F)c2)C[C@H]1Nc1cc(N2CCCCC2)ccn1 [I-990]	10 to 100
NCCNC(=O)c1ccc(N2CCCCC2)cc1N[C@@H]1CCCN(c2cccc(F)c2)C1 [I-991]	10 to 100
O=C1Nc2cnc(N3CCCCC3)cc2NC12CCCN(c1cccc(F)c1)C2 (stereo not shown) [I-992]	10 to 100
Fc1cccc(N2CCCC3(CNc4cnc(N5CCCCC5)cc4N3)C2)c1 (stereo not shown) [I-993]	10 to 100
OC[C@H]1CC[C@H](Nc2cc(N3CCCCC3)ccn2)CN1c1cccc(F)c1 [I-994]	10 to 100
OC[C@@H]1CC[C@@H](Nc2cc(N3CCCCC3)ccn2)CN1c1cccc(F)c1 [I-995]	10 to 100
COCCOCC[C@@H]1CN(c2cc(N3CCCCC3)ccn2)[C@@H]2CCCN(c3cccc(F)c3)[C@H]12 [I-996]	10 to 100
Cc1c(F)ccc(F)c1-c1[nH]ncc1C(=O)N[C@H](c1cccc(Cl)c1)C1CCCS1(=O)=O (stereo partly shown) [I-999]	10 to 100
Cc1c(F)ccc(F)c1-c1[nH]ncc1C(=O)N[C@@H](c1cccc(Cl)c1)[C@H]1CCCS1(=O)=O [I-1000]	< 10
Nc1cnc(N2CCCCC2)nc1N[C@@H]1CCCN(c2cccc(F)c2)C1 [I-1001]	10 to 100
Cc1c(F)ccc(F)c1-c1[nH]ncc1C(=O)N[C@@H](c1cccc(Cl)c1)[C@@H]1CCCS1(=O)=O [I-1002]	< 10
Cc1c(F)ccc(F)c1-c1c(C(=O)N[C@@H](CC(N)=O)c2cccc(Cl)c2)cn(C)c1C(=O)c1ccc(C#CCOC2CCNCC2)cc1 [I-1003]	< 10
Cc1c(F)ccc(F)c1-c1c(C(=O)N[C@@H](CC(=O)N2CC[C@H](O)C2)c2cccc(Cl)c2)cn(C)c1C#N [I-1004]	< 10
Cc1c(F)ccc(F)c1-c1c(C(=O)N[C@@H](CC(=O)N2CC[C@@H](O)C2)c2cccc(Cl)c2)cn(C)c1C#N [I-1005]	< 10
